Test results published in article PMC5735085, “A 1-phytase type III effector interferes with plant hormone signaling” (Nature Communications, 2017).

Target: T1, HopAO1 (Pseudomonas syringae group genomosp. 3, UniProt Q79LY0)
T1 construct: gene hopD2; full-length, N-terminal 6xHis (pMCSG57-hopAO1, DNASU), E. coli BL21-CodonPlus(DE3)-RIL
Assay: in vitro phytate degradation
Assay type: biochemical

T1 sequence (Q79LY0 whole entry): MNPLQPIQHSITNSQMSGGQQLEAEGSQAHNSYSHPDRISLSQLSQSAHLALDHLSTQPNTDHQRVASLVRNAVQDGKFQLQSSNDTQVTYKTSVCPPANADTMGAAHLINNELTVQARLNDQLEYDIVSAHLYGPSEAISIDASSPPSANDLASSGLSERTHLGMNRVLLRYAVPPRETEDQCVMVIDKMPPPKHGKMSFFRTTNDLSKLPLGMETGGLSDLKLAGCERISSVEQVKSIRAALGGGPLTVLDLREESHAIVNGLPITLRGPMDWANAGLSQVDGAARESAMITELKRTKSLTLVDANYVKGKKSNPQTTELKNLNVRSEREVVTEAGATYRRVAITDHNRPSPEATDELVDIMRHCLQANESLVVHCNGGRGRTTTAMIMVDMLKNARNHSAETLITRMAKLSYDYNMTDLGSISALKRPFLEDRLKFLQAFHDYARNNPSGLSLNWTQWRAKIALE

Question: `O=P(O)(O)O[C@H]1[C@H](OP(=O)(O)O)[C@@H](OP(=O)(O)O)[C@H](OP(=O)(O)O)[C@@H](OP(=O)(O)O)[C@H]1OP(=O)(O)O` [InsP6] was tested. Which “in vitro phytate degradation” value did it give?
Answer: HopAO1 degraded phytate in vitro but, in contrast to XopH, to lower phosphorylated
